Data published in patent publication US7022669B1, “Echinocandin derivatives, method for preparing same and application as antifungal agents” (Aventis Pharma S.A., priority 1999, dated 2006).

Molecular target: T1, Glucan Synthase of Candida albicans (Candida albicans, UniProt O13428)
T1 construct: endogenous in cells
Test: Inhibition of the Glucan Synthase of Candida albicans (14C-UDP glucose incorporation, membrane proteins)
Type: biochemical
Settings: Candida albicans membranes, 25° C., 1 hour, radioactivity counted
Experimental: A—Inhibition of the Glucan Synthase of Candida albicans.
Candida albicans membranes were purified according to the process described by Tang et al Antimicrob. Agents Chemother 35, 99–103, 1991. 22.5 μg of membrane proteins are incubated in a mixture of 2 Mm of 14C-UDP glucose (specific activity=0.34 mCi./mmol, 50 μg of α-amylase, 1 Mm of dithiotreitol (DTT), 1 Mm EDTA, 100 Mm NaF, 7 μM of GTP-γ-S, 1M of sucrose and 50 Mm of Tris-HCL (pH 7.8) in a volume of 100 μl. The medium is incubated at 25° C. for 1 hour and the reaction is terminated by adding TCA at a final concentration of 5%. The reaction mixture is transferred onto a pre-humidified glass fibre filter. The filter is washed, dried and its radioactivity is counted. Mulundocandine is used as a positive control. Control of the vehicle is carried out with the same quantity of 1% DMSO. […] The enzyme is prepared according to the process of Beaulieu et al.(Antimicrob. Agents Chemother 38, 937–944, 1994. The protocol used is identical to the protocol described above for the enzyme of Candida albicans except that dithiotreitol is not used in the reaction mixture.

T1 sequence (O13428 1-1897): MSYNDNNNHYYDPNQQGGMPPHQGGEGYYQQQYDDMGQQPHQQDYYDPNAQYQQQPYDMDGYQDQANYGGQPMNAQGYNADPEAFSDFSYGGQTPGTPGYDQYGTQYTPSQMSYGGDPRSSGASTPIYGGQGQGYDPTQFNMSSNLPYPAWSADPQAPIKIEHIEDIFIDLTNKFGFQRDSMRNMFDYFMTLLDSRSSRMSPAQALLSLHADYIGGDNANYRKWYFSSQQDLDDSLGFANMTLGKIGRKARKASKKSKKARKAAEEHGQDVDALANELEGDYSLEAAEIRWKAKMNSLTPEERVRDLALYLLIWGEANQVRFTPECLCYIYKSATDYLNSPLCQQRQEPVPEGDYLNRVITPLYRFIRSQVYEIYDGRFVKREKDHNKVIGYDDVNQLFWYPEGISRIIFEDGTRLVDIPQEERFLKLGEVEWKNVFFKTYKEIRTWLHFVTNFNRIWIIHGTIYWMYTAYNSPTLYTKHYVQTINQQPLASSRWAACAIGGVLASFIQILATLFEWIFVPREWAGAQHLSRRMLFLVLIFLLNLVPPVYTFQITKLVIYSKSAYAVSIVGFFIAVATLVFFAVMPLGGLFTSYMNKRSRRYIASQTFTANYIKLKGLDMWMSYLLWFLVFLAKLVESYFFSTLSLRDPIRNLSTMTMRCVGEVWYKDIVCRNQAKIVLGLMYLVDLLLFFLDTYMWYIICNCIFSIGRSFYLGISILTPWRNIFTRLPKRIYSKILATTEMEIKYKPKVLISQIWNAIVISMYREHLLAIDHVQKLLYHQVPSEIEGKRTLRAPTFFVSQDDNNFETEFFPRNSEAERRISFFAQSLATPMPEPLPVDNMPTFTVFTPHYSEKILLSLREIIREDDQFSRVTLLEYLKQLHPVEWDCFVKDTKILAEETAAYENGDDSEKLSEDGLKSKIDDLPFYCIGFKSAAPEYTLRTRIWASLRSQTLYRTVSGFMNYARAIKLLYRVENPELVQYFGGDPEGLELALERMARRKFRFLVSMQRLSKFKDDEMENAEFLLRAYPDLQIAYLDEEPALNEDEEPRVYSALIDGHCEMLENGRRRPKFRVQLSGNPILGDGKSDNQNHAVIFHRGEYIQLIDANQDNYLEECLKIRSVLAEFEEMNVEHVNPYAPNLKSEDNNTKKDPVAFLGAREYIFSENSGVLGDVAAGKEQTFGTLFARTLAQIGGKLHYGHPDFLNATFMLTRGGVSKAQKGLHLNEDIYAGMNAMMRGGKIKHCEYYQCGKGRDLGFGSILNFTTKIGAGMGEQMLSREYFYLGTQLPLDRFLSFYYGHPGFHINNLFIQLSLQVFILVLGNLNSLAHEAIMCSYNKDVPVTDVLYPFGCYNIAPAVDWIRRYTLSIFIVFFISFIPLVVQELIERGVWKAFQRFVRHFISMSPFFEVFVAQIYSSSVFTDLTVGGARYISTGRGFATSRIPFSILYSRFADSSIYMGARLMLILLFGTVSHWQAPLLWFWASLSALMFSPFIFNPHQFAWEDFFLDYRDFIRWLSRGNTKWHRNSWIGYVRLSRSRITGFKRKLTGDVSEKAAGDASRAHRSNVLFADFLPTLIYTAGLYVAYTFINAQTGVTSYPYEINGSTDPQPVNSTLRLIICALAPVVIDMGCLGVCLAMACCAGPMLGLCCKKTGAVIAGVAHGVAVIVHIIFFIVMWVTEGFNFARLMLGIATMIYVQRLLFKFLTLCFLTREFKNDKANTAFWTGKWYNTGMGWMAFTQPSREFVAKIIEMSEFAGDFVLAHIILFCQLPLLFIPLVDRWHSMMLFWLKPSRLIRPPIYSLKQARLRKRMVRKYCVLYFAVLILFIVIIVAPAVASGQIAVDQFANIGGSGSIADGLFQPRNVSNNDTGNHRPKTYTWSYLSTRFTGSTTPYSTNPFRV
T1 sequence (O42825 1-195 partner limits assumed): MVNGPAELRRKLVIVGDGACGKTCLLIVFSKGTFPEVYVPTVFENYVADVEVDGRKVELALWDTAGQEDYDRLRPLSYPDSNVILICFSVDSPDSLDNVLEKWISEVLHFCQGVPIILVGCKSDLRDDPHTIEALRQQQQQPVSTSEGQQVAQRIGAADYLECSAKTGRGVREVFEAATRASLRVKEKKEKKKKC

## Trans 1-[4-[(2-aminocyclo-hexyl)-amino]-N2-[[4″-(pentyloxy) [1,1′:4′,1″-terphenyl]-4-yl]-carbonyl]-L-ornithine]-4-[4-(4-hydroxyphenyl)-L-threonine]-5-L-serine-echinocandine B trifluoroacetate (isomer A) [Example 3 isomer A]
  Inhibition of the glucan synthase of Candida albicans: good activity
